{"source": "patent US20250255874A1", "about": "“Methods for Treating Immune Thrombocytopenia By Administering (R)-2-[3-[4-Amino-3-(2-Fluoro-4-Phenoxy-Phenyl)Pyrazolo[3,4-D]Pyrimidin-1-YL]Piperidine-1-Carbonyl]-4-Methyl-4-[4-(Oxetan-3-YL)Piperazin-1-YL]Pent-2-Enentrile” (Principia Biopharma Inc., priority 2022, published 2025)", "system": "patients with relapsed/refractory immune thrombocytopenia", "assay": "Phase 1/2 study (NCT03395210) Part A, safety;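 also: adverse events graded by NCI CTCAE version 4.0, with worsening of pre-existing conditions counted as adverse events, analysed in the Safety Population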", "key": {"[1]": {"conditions": "45 patients who initiated 400 bid"}}, "note": "Marks after values point to notes of the source that are not given here."}
{"molecule": "CC(C)(C=C(C#N)C(=O)N1CCC[C@@H](n2nc(-c3ccc(Oc4ccccc4)cc3F)c3c(N)ncnc32)C1)N1CCN(C2COC2)CC1", "note": "[rilzabrutinib, (R)-2-[3-[4-amino-3-(2-fluoro-4-phenoxy-phenyl)pyrazolo[3,4-d]pyrimidin-1-yl]piperidine-1-carbonyl]-4-methyl-4-[4-(oxetan-3-yl)piperazin-1-yl]pent-2-enenitrile]", "values": [{"measurement": "patients with ≥1 treatment-related, treatment-emergent adverse event", "setting": "45 patients who initiated 400 mg bid", "result": 84, "unit": "%"}, {"measurement": "treatment-related any-grade TEAE: diarrhea", "setting": "[1]", "result": 36, "unit": "%"}, {"measurement": "treatment-related any-grade TEAE: fatigue", "setting": "[1]", "result": 9, "unit": "%"}, {"measurement": "treatment-related any-grade TEAE: nausea", "setting": "[1]", "result": 31, "unit": "%"}, {"measurement": "patients with ≥1 treatment-related, treatment-emergent adverse event", "setting": "60 patients who initiated rilzabrutinib at all doses", "result": 52, "unit": "%"}, {"measurement": "All related TEAEs, Treatment-Related TEAEs, Grade 1", "setting": "N = 45 initiated 400 mg bid", "result": "23 (51) number of patients (percent)"}, {"measurement": "All related TEAEs, Treatment-Related TEAEs, Grade 2", "setting": "N = 45 initiated 400 mg bid", "result": "15 (33) number of patients (percent)"}, {"measurement": "Diarrhea, Treatment-Related TEAEs, Grade 1", "setting": "N = 45 initiated 400 mg bid", "result": "13 (29) number of patients (percent)"}, {"measurement": "Diarrhea, Treatment-Related TEAEs, Grade 2", "setting": "N = 45 initiated 400 mg bid", "result": "3 (7) number of patients (percent)"}, {"measurement": "Fatigue, Treatment-Related TEAEs, Grade 1", "setting": "N = 45 initiated 400 mg bid", "result": "3 (7) number of patients (percent)"}, {"measurement": "Fatigue, Treatment-Related TEAEs, Grade 2", "setting": "N = 45 initiated 400 mg bid", "result": "1 (2) number of patients (percent)"}, {"measurement": "Nausea, Treatment-Related TEAEs, Grade 1", "setting": "N = 45 initiated 400 mg bid", "result": "12 (27) number of patients (percent)"}, {"measurement": "Nausea, Treatment-Related TEAEs, Grade 2", "setting": "N = 45 initiated 400 mg bid", "result": "2 (4) number of patients (percent)"}, {"measurement": "Vomiting, Treatment-Related TEAEs, Grade 1", "setting": "N = 45 initiated 400 mg bid", "result": "2 (4) number of patients (percent)"}, {"measurement": "Vomiting, Treatment-Related TEAEs, Grade 2", "setting": "N = 45 initiated 400 mg bid", "result": "1 (2) number of patients (percent)"}, {"measurement": "Abdominal discomfort, TEAEs Due to Any Cause, Any grade", "setting": "Safety Population, N = 60", "result": "1 (2) number of patients (percent)"}, {"measurement": "Abdominal discomfort, TEAEs Due to Any Cause, Grade 1", "setting": "Safety Population, N = 60", "result": "1 (2) number of patients (percent)"}, {"measurement": "Abdominal discomfort, Treatment-Related TEAEs, Any grade", "setting": "Safety Population, N = 60", "result": "1 (2) number of patients (percent)"}, {"measurement": "Abdominal discomfort, Treatment-Related TEAEs, Grade 1", "setting": "Safety Population, N = 60", "result": "1 (2) number of patients (percent)"}, {"measurement": "Abdominal distension, TEAEs Due to Any Cause, Any grade", "setting": "Safety Population, N = 60", "result": "6 (10) number of patients (percent)"}, {"measurement": "Abdominal distension, TEAEs Due to Any Cause, Grade 1", "setting": "Safety Population, N = 60", "result": "6 (10) number of patients (percent)"}, {"measurement": "Abdominal distension, Treatment-Related TEAEs, Any grade", "setting": "Safety Population, N = 60", "result": "4 (7) number of patients (percent)"}, {"measurement": "Abdominal distension, Treatment-Related TEAEs, Grade 1", "setting": "Safety Population, N = 60", "result": "4 (7) number of patients (percent)"}, {"measurement": "Abdominal pain, TEAEs Due to Any Cause, Any grade", "setting": "Safety Population, N = 60", "result": "3 (5) number of patients (percent)"}, {"measurement": "Abdominal pain, TEAEs Due to Any Cause, Grade 1", "setting": "Safety Population, N = 60", "result": "1 (2) number of patients (percent)"}, {"measurement": "Abdominal pain, TEAEs Due to Any Cause, Grade 2", "setting": "Safety Population, N = 60", "result": "2 (3) number of patients (percent)"}, {"measurement": "Abdominal pain, Treatment-Related TEAEs, Any grade", "setting": "Safety Population, N = 60", "result": "2 (3) number of patients (percent)"}, {"measurement": "Abdominal pain, Treatment-Related TEAEs, Grade 2", "setting": "Safety Population, N = 60", "result": "2 (3) number of patients (percent)"}, {"measurement": "Abnormal dreams, TEAEs Due to Any Cause, Any grade", "setting": "Safety Population, N = 60", "result": "1 (2) number of patients (percent)"}, {"measurement": "Abnormal dreams, TEAEs Due to Any Cause, Grade 1", "setting": "Safety Population, N = 60", "result": "1 (2) number of patients (percent)"}, {"measurement": "Abnormal dreams, Treatment-Related TEAEs, Any grade", "setting": "Safety Population, N = 60", "result": "1 (2) number of patients (percent)"}, {"measurement": "Abnormal dreams, Treatment-Related TEAEs, Grade 1", "setting": "Safety Population, N = 60", "result": "1 (2) number of patients (percent)"}, {"measurement": "Akathisia, TEAEs Due to Any Cause, Any grade", "setting": "Safety Population, N = 60", "result": "1 (2) number of patients (percent)"}, {"measurement": "Akathisia, TEAEs Due to Any Cause, Grade 1", "setting": "Safety Population, N = 60", "result": "1 (2) number of patients (percent)"}, {"measurement": "Akathisia, Treatment-Related TEAEs, Any grade", "setting": "Safety Population, N = 60", "result": "1 (2) number of patients (percent)"}, {"measurement": "Akathisia, Treatment-Related TEAEs, Grade 1", "setting": "Safety Population, N = 60", "result": "1 (2) number of patients (percent)"}, {"measurement": "Alopecia, TEAEs Due to Any Cause, Any grade", "setting": "Safety Population, N = 60", "result": "2 (3) number of patients (percent)"}, {"measurement": "Alopecia, TEAEs Due to Any Cause, Grade 1", "setting": "Safety Population, N = 60", "result": "2 (3) number of patients (percent)"}, {"measurement": "Anemia, TEAEs Due to Any Cause, Any grade", "setting": "Safety Population, N = 60", "result": "4 (7) number of patients (percent)"}, {"measurement": "Anemia, TEAEs Due to Any Cause, Grade 2", "setting": "Safety Population, N = 60", "result": "2 (3) number of patients (percent)"}, {"measurement": "Anemia, TEAEs Due to Any Cause, Grade 3/4", "setting": "Safety Population, N = 60", "result": "2 (3) number of patients (percent)"}, {"measurement": "Any TEAE, TEAEs Due to Any Cause, Any grade", "setting": "Safety Population, N = 60", "result": "48 (80) number of patients (percent)"}, {"measurement": "Any TEAE, TEAEs Due to Any Cause, Grade 1", "setting": "Safety Population, N = 60", "result": "43 (72) number of patients (percent)"}, {"measurement": "Any TEAE, TEAEs Due to Any Cause, Grade 2", "setting": "Safety Population, N = 60", "result": "30 (50) number of patients (percent)"}, {"measurement": "Any TEAE, TEAEs Due to Any Cause, Grade 3/4", "setting": "Safety Population, N = 60", "result": "8 (13)^† number of patients (percent)"}, {"measurement": "Any TEAE, Treatment-Related TEAEs, Any grade", "setting": "Safety Population, N = 60", "result": "31 (52) number of patients (percent)"}, {"measurement": "Any TEAE, Treatment-Related TEAEs, Grade 1", "setting": "Safety Population, N = 60", "result": "27 (45) number of patients (percent)"}, {"measurement": "Any TEAE, Treatment-Related TEAEs, Grade 2", "setting": "Safety Population, N = 60", "result": "15 (25) number of patients (percent)"}, {"measurement": "Arthralgia, TEAEs Due to Any Cause, Any grade", "setting": "Safety Population, N = 60", "result": "5 (8) number of patients (percent)"}, {"measurement": "Arthralgia, TEAEs Due to Any Cause, Grade 1", "setting": "Safety Population, N = 60", "result": "3 (5) number of patients (percent)"}, {"measurement": "Arthralgia, TEAEs Due to Any Cause, Grade 2", "setting": "Safety Population, N = 60", "result": "2 (3) number of patients (percent)"}, {"measurement": "Arthropod bite, TEAEs Due to Any Cause, Any grade", "setting": "Safety Population, N = 60", "result": "3 (5) number of patients (percent)"}, {"measurement": "Arthropod bite, TEAEs Due to Any Cause, Grade 1", "setting": "Safety Population, N = 60", "result": "3 (5) number of patients (percent)"}, {"measurement": "Back pain, TEAEs Due to Any Cause, Any grade", "setting": "Safety Population, N = 60", "result": "8 (13) number of patients (percent)"}, {"measurement": "Back pain, TEAEs Due to Any Cause, Grade 1", "setting": "Safety Population, N = 60", "result": "7 (12) number of patients (percent)"}]}
